Measured values from ChEMBL document CHEMBL1201862, “PubChem BioAssay data set” (2004).
Several values for one entry are separate records, joined by “and”; a condition that tells them apart may be missing. Identical values can stand only once.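 1) Cells in 96-well plates. 2) Compound, 48 h, 5 concentrations. 3) Linear interpolation between surrounding doses. 4) Unreached endpoint = highest concentration. GI50 = concentration required for 50% inhibition of growth.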 Activity calls are given as the source filed them. Rule as the data show it: active = GI50 up to about 1.1 µM and inactive = higher.

How the values were obtained:
Assay in all cases: growth of human tumour cells (NCI), 48 h
[1] = test system: SK-MEL-5
[2] = test system: A549
[3] = test system: HT-29
[4] = test system: NCI-H522
[5] = test system: MDA-N
[6] = test system: RPMI-8226
[7] = test system: OVCAR-3
[8] = test system: NCI/ADR-RES
[9] = test system: HOP-62
[10] = test system: ACHN
[11] = test system: UO-31
[12] = test system: K562
[13] = test system: SF-295
[14] = test system: SK-MEL-2
[15] = test system: COLO 205
[16] = test system: SNB-19
[17] = test system: 786-0
[18] = test system: EKVX
[19] = test system: SNB-75
[20] = test system: TK-10

Row | SMILES | GI50 [1] | GI50 [2] | GI50 [3] | GI50 [4] | GI50 [5] | GI50 [6] | GI50 [7] | GI50 [8] | GI50 [9] | GI50 [10] | GI50 [11] | GI50 [12] | GI50 [13] | GI50 [14] | GI50 [15] | GI50 [16] | GI50 [17] | GI50 [18] | GI50 [19] | GI50 [20]
1 | Cc1c(Cl)cccc1NC(=O)CC1Sc2ccccc2NC1=O (stereo unspecified) | 14.2 µM (inactive) and 10.5 µM (inactive) | 19.8 µM (inactive) and 29.2 µM (inactive) | 13.9 µM (inactive) | 27.7 µM (inactive) and 21 µM (inactive) | 2.71 µM (inactive) | 23.9 µM (inactive) and 32.4 µM (inactive) | 15.3 µM (inactive) and 17.9 µM (inactive) | 17 µM (inactive) | 10.1 µM (inactive) and 18.2 µM (inactive) | 23.7 µM (inactive) and 23.5 µM (inactive) | 19.4 µM (inactive) and 19.6 µM (inactive) | 6.59 µM (inactive) and 6.53 µM (inactive) | 37.5 µM (inactive) and 21.9 µM (inactive) | 16.4 µM (inactive) and 17.9 µM (inactive) | 46.3 µM (inactive) and 31.4 µM (inactive) | 19.4 µM (inactive) and 20.1 µM (inactive) | 24 µM (inactive) and 17.4 µM (inactive) | 46.9 µM (inactive) and 49.8 µM (inactive) |  | 
2 | CCCCCCCCCCCCCC(=O)NO | 9.64 µM (inactive) | 9.91 µM (inactive) | 8.99 µM (inactive) | 1.01 µM (active) | 25.7 µM (inactive) | 5 µM (inactive) | 10.1 µM (inactive) |  | 17.4 µM (inactive) | 14.9 µM (inactive) | 6.38 µM (inactive) | 3.03 µM (inactive) | 21.4 µM (inactive) | 23.5 µM (inactive) | 10.5 µM (inactive) | 23.9 µM (inactive) | 7.1 µM (inactive) | 21.4 µM (inactive) | 11.4 µM (inactive) | 19.9 µM (inactive)
3 | Cc1ccc(C(=O)N/N=C(\N=N\c2ccccc2)c2ccc(N(C)C)cc2)cc1 | 92 µM (inactive) | > 100 µM (inactive) | > 100 µM (inactive) | 65.8 µM (inactive) | 29.4 µM (inactive) | > 100 µM (inactive) | > 100 µM (inactive) | > 100 µM (inactive) |  |  | > 100 µM (inactive) | 52.2 µM (inactive) | > 100 µM (inactive) | > 100 µM (inactive) | 57.3 µM (inactive) | 80.4 µM (inactive) | 68.2 µM (inactive) | > 100 µM (inactive) |  | > 100 µM (inactive)
4 | O=C(CC(C(=O)c1cccs1)c1ccsc1)c1ccsc1 (stereo unspecified) | 16.1 µM (inactive) | 45.8 µM (inactive) | 36.6 µM (inactive) | 20.4 µM (inactive) | > 10 µM (inactive) | 27.1 µM (inactive) | 40.2 µM (inactive) | 24.8 µM (inactive) | 56.9 µM (inactive) | 58.2 µM (inactive) | 31.4 µM (inactive) | 27.4 µM (inactive) | 24.6 µM (inactive) |  | 18.2 µM (inactive) | 50.6 µM (inactive) | 46.2 µM (inactive) | 38 µM (inactive) | 25.6 µM (inactive) | > 100 µM (inactive)
5 | Cc1cc(OCc2nnc3n2N=C(c2cc(F)c(Cl)cc2Cl)/C(=C/c2ccc(Cl)cc2)S3)ccc1Cl | 17.9 µM (inactive) |  | 16.7 µM (inactive) | 14.7 µM (inactive) | 32.4 µM (inactive) | 11.7 µM (inactive) | 30.5 µM (inactive) | 33.2 µM (inactive) | 43.1 µM (inactive) | 33.5 µM (inactive) | 27.5 µM (inactive) | 8.38 µM (inactive) | 29.9 µM (inactive) | 29 µM (inactive) |  |  | 28.1 µM (inactive) | 39.4 µM (inactive) |  | 32.6 µM (inactive)
6 | O=P(O)(O)C(NCC(O)CN1CCOCC1)P(=O)(O)O (stereo unspecified) | > 100 µM (inactive) | > 100 µM (inactive) | > 100 µM (inactive) | > 100 µM (inactive) | > 100 µM (inactive) | > 100 µM (inactive) | > 100 µM (inactive) | > 100 µM (inactive) | > 100 µM (inactive) | > 100 µM (inactive) | > 100 µM (inactive) | > 100 µM (inactive) | > 100 µM (inactive) |  | > 100 µM (inactive) | > 100 µM (inactive) | > 100 µM (inactive) | > 100 µM (inactive) | > 100 µM (inactive) | > 100 µM (inactive)
7 | COc1ccc(NC(=O)Oc2cc(C)c3ccc(=O)cc-3o2)c(OC)c1.COc1ccc(NC(=O)Oc2ccc3c(C)cc(=O)oc3c2)c(OC)c1 | > 100 µM (inactive) | > 100 µM (inactive) | > 100 µM (inactive) | > 100 µM (inactive) | > 100 µM (inactive) | > 100 µM (inactive) | > 100 µM (inactive) | > 100 µM (inactive) | > 100 µM (inactive) | > 100 µM (inactive) | > 100 µM (inactive) |  | > 100 µM (inactive) | > 100 µM (inactive) | > 100 µM (inactive) | > 100 µM (inactive) | > 100 µM (inactive) | > 100 µM (inactive) |  | > 100 µM (inactive)
